Experimental data from ChEMBL document CHEMBL5046290, “Design, Synthesis, and Preclinical Profiling of GSK3739936 (BMS-986180), an Allosteric Inhibitor of HIV-1 Integrase with Broad-Spectrum Activity toward 124/125 Polymorphs” (J Med Chem, 2022).

What was measured:
[1] = tested on: Human immunodeficiency virus 1; assay: Antiviral activity against recombinant HIV1 NLRep-Rluc harbouring polymorphic T124/T125 integrase infected in human MT-2 cells assessed as inhibition of virus growth in presence of fetal bovine serum by measuring luciferase activity after 5 days; format: functional, organism-based, MT2
[2] = target: T1, Solute carrier organic anion transporter family member 1B1 (Homo sapiens, UniProt Q9Y6L6); assay: Inhibition of OATP1B1 (unknown origin); format: ADME
T1 sequence (Q9Y6L6 whole entry): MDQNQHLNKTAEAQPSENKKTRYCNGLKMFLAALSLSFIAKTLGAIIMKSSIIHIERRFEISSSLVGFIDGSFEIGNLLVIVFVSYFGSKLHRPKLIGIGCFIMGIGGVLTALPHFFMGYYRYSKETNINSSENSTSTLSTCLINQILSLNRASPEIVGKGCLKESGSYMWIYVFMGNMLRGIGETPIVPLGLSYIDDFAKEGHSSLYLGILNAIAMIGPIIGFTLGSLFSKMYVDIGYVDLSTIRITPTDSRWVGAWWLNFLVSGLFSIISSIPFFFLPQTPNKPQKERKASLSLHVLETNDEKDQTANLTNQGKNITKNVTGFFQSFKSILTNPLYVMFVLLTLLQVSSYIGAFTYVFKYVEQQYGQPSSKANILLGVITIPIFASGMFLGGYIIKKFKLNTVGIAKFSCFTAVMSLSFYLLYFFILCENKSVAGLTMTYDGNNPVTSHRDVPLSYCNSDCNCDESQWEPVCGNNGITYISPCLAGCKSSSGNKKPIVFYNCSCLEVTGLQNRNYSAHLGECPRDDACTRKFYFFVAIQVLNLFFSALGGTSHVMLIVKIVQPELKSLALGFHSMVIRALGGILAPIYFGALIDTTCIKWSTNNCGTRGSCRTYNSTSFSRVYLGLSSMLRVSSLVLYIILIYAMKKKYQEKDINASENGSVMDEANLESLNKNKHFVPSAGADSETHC

[3] = Displacement of [3H](S)-2-(tert-butoxy)-2-(2-methyl-4-(p-tolyl)quinolin-3-yl)acetic acid from LEDGF-binding site of recombinant T124/T125 polymorphic HIV1 integrase by LIDIA assay; design: species or system Human immunodeficiency virus 1
[4] = Cytotoxicity against human MT2 cells assessed as cell viability measured after 4 days by XTT assay; format: toxicity, cell-based; details: time 4 day
[5] = tested on: Human immunodeficiency virus 1; assay: Antiviral activity against recombinant HIV1 NLRep-Rluc harbouring polymorphic TA infected in human MT-2 cells assessed as inhibition of virus growth in presence of fetal bovine serum by measuring luciferase activity after 5 days; format: functional, organism-based; details: Human immunodeficiency virus 1, NLRep, MT2, 120 h
[6] = Stability in human liver microsome assessed as half life; format: ADME; details: liver microsomes
[7] = tested on: Human immunodeficiency virus 1; assay: Antiviral activity against recombinant HIV1 NLRep-Rluc harbouring polymorphic NA infected in human MT-2 cells assessed as inhibition of virus growth in presence of fetal bovine serum by measuring luciferase activity after 5 days; format: functional, organism-based; details: Human immunodeficiency virus 1, NLRep, MT2, 120 h
[8] = tested on: Human immunodeficiency virus 1; assay: Antiviral activity against recombinant HIV1 A128T-resitant mutant […] infected in human MT-2 cells assessed as inhibition of virus growth in presence of fetal bovine serum by measuring luciferase activity after 5 days; format: functional, organism-based; details: Human immunodeficiency virus 1, MT2, 120 h
[9] = Metabolic stability in rat liver microsome assessed half life at 0.5 uM by LC-MS/MS analysis; format: ADME; details: liver microsomes
[10] = Clearance in Sprague-Dawley rat at 1 mg/kg, iv by LC-MS/MS analysis; format: ADME, organism-based; details: in vivo
[11] = tested on: Human immunodeficiency virus 1; assay: Antiviral activity against recombinant HIV1 NLRep-Rluc harbouring polymorphic AA infected in human MT-2 cells assessed as inhibition of virus growth in presence of fetal bovine serum by measuring luciferase activity after 5 days; format: functional, organism-based; details: Human immunodeficiency virus 1, NLRep, MT2, 120 h
[12] = tested on: Human immunodeficiency virus 1; assay: Antiviral activity against recombinant HIV1 NLRep-Rluc harbouring polymorphic NT infected in human MT-2 cells assessed as inhibition of virus growth in presence of fetal bovine serum by measuring luciferase activity after 5 days; format: functional, organism-based; details: Human immunodeficiency virus 1, NLRep, MT2, 120 h
[13] = tested on: Human immunodeficiency virus 1; assay: Antiviral activity against recombinant HIV1 NLRep-Rluc harbouring polymorphic AT infected in human MT-2 cells assessed as inhibition of virus growth in presence of fetal bovine serum by measuring luciferase activity after 5 days; format: functional, organism-based; details: Human immunodeficiency virus 1, NLRep, MT2, 120 h
[14] = Metabolic stability in human liver microsome assessed half life at 0.5 uM by LC-MS/MS analysis; format: ADME; details: liver microsomes
[15] = tested on: Human immunodeficiency virus 1; assay: Anti retroviral activity against HIV-1 NL4-3 harboring at TA polymorph infected in human MT4 cells by CellTitre-Glo luminescent reagent based assay; format: functional, organism-based; details: Human immunodeficiency virus 1, NL4-3, MT4
[16] = tested on: Human immunodeficiency virus 1; assay: Anti retroviral activity against HIV-1 NL4-3 harboring at AT polymorph infected in human MT4 cells by CellTitre-Glo luminescent reagent based assay; format: functional, organism-based; details: Human immunodeficiency virus 1, NL4-3, MT4
[17] = tested on: Human immunodeficiency virus 1; assay: Anti retroviral activity against HIV-1 NL4-3 harboring at TT polymorph infected in human MT4 cells by CellTitre-Glo luminescent reagent based assay; format: functional, organism-based; details: Human immunodeficiency virus 1, NL4-3, MT4
[18] = tested on: Human immunodeficiency virus 1; assay: Anti retroviral activity against HIV-1 NL4-3 harboring at NA polymorph infected in human MT4 cells by CellTitre-Glo luminescent reagent based assay; format: functional, organism-based; details: Human immunodeficiency virus 1, NL4-3, MT4
[19] = tested on: Human immunodeficiency virus 1; assay: Anti retroviral activity against HIV-1 NL4-3 harboring at AA polymorph infected in human MT4 cells by CellTitre-Glo luminescent reagent based assay; format: functional, organism-based; details: Human immunodeficiency virus 1, NL4-3, MT4
[20] = tested on: Human immunodeficiency virus 1; assay: Anti retroviral activity against HIV-1 NL4-3 harboring at NT polymorph infected in human MT4 cells by CellTitre-Glo luminescent reagent based assay; format: functional, organism-based; details: Human immunodeficiency virus 1, NL4-3, MT4
[21] = Human immunodeficiency virus 1, NLRep, MT2, 120 h

Compound	EC50 [1, 21]	IC50 [3]	EC50 [5]	EC50 [7]	EC50 [8]	EC50 [11]	EC50 [12]	EC50 [13]	also measured
Cc1nc(C)c([C@H](OC(C)(C)C)C(=O)O)c(N2CCC(C)(C)CC2)c1-c1ccc(OCCc2ccc(C#N)cc2)cc1	1.5 nM	13.3 nM							IC50 [2]: 100 nM; CC50 at 96 h [4]: ≥ 33500 nM
Cc1nc(C)c([C@H](OC(C)(C)C)C(=O)O)c(N2CCC(C)(C)CC2)c1-c1ccc(OC2COCC2c2ccc(F)cc2)cc1 (stereo in doubt; 40b)		7.9 nM	0.92 nM	3.7 nM	> 500 nM	1.7 nM	0.53 nM	1.3 nM	half-life [6]: 47 min; half-life at 0.5 µM [9]: > 120 min; clearance [10]: 23.4 mL/min/kg; EC50 ([1]; mt2): 0.6 nM; half-life at 0.5 µM [14]: 47 min
Cc1nc2ccccc2c(-c2ccc3c4c(ccnc24)CCO3)c1[C@H](OC(C)(C)C)C(=O)O [BI-224436]	49 nM		49.5 nM	49.1 nM	> 500 nM	28.1 nM	56.3 nM	48.7 nM	EC50 [15]: 32 nM; EC50 [16]: 32 nM; EC50 [17]: 32 nM; EC50 [18]: 32 nM; EC50 [19]: 32 nM; EC50 [20]: 32 nM
